The values that follow come from patent publication US11788092B2, “Recombinant microorganisms and uses therefor” (LanzaTech, Inc., priority 2021, dated 2023).

In brackets after ≈: the same amount, converted by molar mass.

Series [1] has as its system C. autoethanogenum strain with aldehyde::ferredoxin oxidoreductase (AOR) enzymes deleted. The experiment in a line: 3-HP challenge experiment, autotrophic growth in Schott bottles. The format is cell-based, Clostridium autoethanogenum. On the procedure: FIGS. 2A-2B show autotrophic growth of Clostridium autoethanogenum Δaor strain in the presence of different amounts of 3-hydroxypropionic acid (at 0, 0.2, 0.5, 1, 2, 5 and 10 g/L) in Schott bottles. FIG. 2A: Growth profile; FIG. 2B: Peak Biomass. Unc=Unchallenged; N=2; Error bar=S.D.
To study the toxicity of 3-HP on autotrophic growth of C. autoethanogenum, a 3-HP challenge experiment (at 0, 0.2, 0.5, 1, 2, 5 and 10 g/L) was conducted in Schott bottles with synthetic gas blend (50% CO, 10% H2, 30% CO2 and 10% N2) using a strain with aldehyde::ferredoxin oxidoreductase (AOR) enzymes deleted (FIG. 2). […] Unc=Unchallenged; N=2; Error bar=S.D.

The next series deals with Synechococcus elongatus. As to conditions: Begemann et al. 2013; cited from earlier work.

`O=C(O)CCO` [Strain 3-HP, 3-Hydroxypropionate]: the “effect on growth rate” value in series [1] (5 g/L 3-HP) is “reduced the growth rate”; in series [1] (10 g/L 3-HP), “more pronounced decrease in growth rate”. Also, in series [1] (5 g/L 3-HP, synthetic gas blend 50% CO, 10% H2, 30% CO2, 10% N2, N=2), the “reduction of peak OD600 nm vs unchallenged culture” value stood at 22%. Moreover, the “decrease in peak OD600 nm vs unchallenged culture” value in series [1] (10 g/L 3-HP, synthetic gas blend 50% CO, 10% H2, 30% CO2, 10% N2, N=2) came out at 40%. The minimal inhibitory concentration in the series on Synechococcus elongatus was 180 µg/mL (≈ 2000 µM).
